Source: US11697639B2, “Quaternary ammonium salt compound, preparation method therefor and use thereof” (WEST CHINA HOSPITAL, SICHUAN UNIVERSITY, priority 2018, dated 2023)
Counter-ions that a name gives are not always drawn.

How the values were obtained:
Type in all cases: in vivo
rat's sciatic nerve [1] = assay: Rat sciatic nerve block, sensory block tested with von Frey stimulator; conditions: 0.5 mL injected near sciatic nerve, test drugs 20 mmol/mL in distilled water, lidocaine 2%, levobupivacaine 0.75%; for Local anesthesia onset time (Median): 8 rats per group; for Time of sensory block (Median): von Frey
Procedure: (§1) For the dosage, the lidocaine group is 2% aqueous solution, the levobupivacaine group is 0.75% aqueous solution, and test drug groups are all distilled water solution at the concentration of 20 mmol/mL.
(§2) The injection volume for each rat or the control was 0.5 mL, which was guided by a nerve locator and injected near the rat's sciatic nerve. Using von Frey stimulator, the rats were stimulated the soles of the feet in the injected side, to observe the effect of local anesthesia. Meanwhile, Postural Extensor Thrust (PET) was used to evaluate the motor function of the rat: the rat was lifted vertically and the hindlimb in the injected side pedaled on the platform of the electronic balance. […] When the limb was completely paralyzed, the reading was the limb's own weight, about 20 g. If the measured value was more than half of the difference between the baseline and the limb weight, the motor function was regarded as recovery, and if the value was less than or equal to this difference, the motor function was regarded as loss.

rat's sciatic nerve [2] = assay: Rat sciatic nerve block, motor function by Postural Extensor Thrust (PET); conditions: 0.5 mL injected near sciatic nerve, test drugs 20 mmol/mL in distilled water, lidocaine 2%, levobupivacaine 0.75%
Procedure: as §1, §2

back skin of rat = assay: Local anesthetic effect by subcutaneous infiltration in rat back skin (Von Frey 100 g); conditions: 0.5 mL in saline, compound 6 mmol/L, bupivacaine 23 mmol/L, 10 rats per compound
Procedure: After the back of rat weighing 250-300 g was shaved and disinfected, a circle with a diameter of about 1.5 cm was drawn on the side of the exposed back, and the circle is divided into 6 equal parts. […] Among the Von Frey fiber yarns, the one with a strength of 100 g was bound to the needle for local skin stimulation. One minute After the drug was injected, the above method was used to stimulate in 6 divisions. […] If back skin contraction was observed, the local anesthetic effect was considered as loss. […] Each compound was tested with 10 rats.

SMILES	Local anesthesia onset time (Median) (rat's sciatic nerve [1])	Time of sensory block (Median) (rat's sciatic nerve [1])	Time of motor block (Median) (rat's sciatic nerve [2])	Lasting time of local anesthesia (Median) (back skin of rat)	Local anesthesia onset time (Median) (back skin of rat)
CCCCN1CCCC[C@H]1C(=O)Nc1c(C)cccc1C [Levobupivacaine Hydrochloride, reference compound]	1 min	2.5 h	2.5 h	7 h	1 min
CC[N+](C)(CCCN1CCCCC1C(=O)Nc1c(C)cccc1C)CC(=O)Nc1c(C)cccc1C (stereo not shown) [example 1]	3 min	24 h	18 h	34 h	1 min
CCC[N+](CC)(CCCCCN1CCCCC1C(=O)Nc1c(C)cccc1C)CC(=O)Nc1c(C)cc([N+](=O)[O-])cc1C (stereo not shown) [example 3]	1 min	27 h	10 h	37 h	1 min
CCC[N+](CC)(CCCCCCCCN1CCCCC1C(=O)Nc1c(C)cccc1C)CC(=O)Nc1c(C)ccc(Br)c1C (stereo not shown) [example 4]	1 min	33 h	10 h	44 h	2 min
CCCC[N+](CC)(CCOCCN1CCCCC1C(=O)Nc1c(C)cccc1C)CC(=O)Nc1c(C)cccc1O (stereo not shown) [example 5]	6 min	28 h	11 h	68 h	1 min
CC[N+](C)(CCCN1CCCCC1C(=O)Nc1c(C)cccc1C)CC(=O)Nc1c(C)ccc(Cl)c1C (stereo not shown) [example 6]	3 min	30 h	19 h	47 h	1 min
CCC[N+](CC)(CCCCCCCCN1CCCCC1C(=O)Nc1c(C)cccc1C)CC(=O)Nc1c(C)cccc1OC (stereo not shown) [example 7]	2 min	28 h	10 h	57 h	1 min
CCC[N+](C)(CCCCCN1CCCCC1C(=O)Nc1c(C)ccc(C#N)c1C)CC(=O)Nc1c(C)cccc1C (stereo not shown) [example 8]	1 min	24 h	18 h	33 h	1 min
CC[N+](C)(CCCN(C)CC(=O)Nc1c(C)cccc1C)CC(=O)Nc1c(C)cccc1C (stereo not shown) [example 9]	5 min	24 h	10 h	28 h	2 min
CCC[N+](CC)(CCCCCCCCN1CCCCC1C(=O)Nc1c(C)cccc1C)CC(=O)Nc1c(C)ccc(Br)c1C (stereo not shown) [example 11]	1 min	34 h	11 h	54 h	1 min
CCC[N+](C)(CCCCCN1CCCCC1C(=O)Nc1c(C)cc(C)cc1C)CC(=O)Nc1c(C)cc(C#N)cc1C (stereo not shown) [example 13]	1 min	25 h	17 h	45 h	1 min
CC[N+](C)(CCCN1CCCCC1C(=O)Nc1c(C)cccc1C)CC(=O)Nc1c(C)cccc1C.O=C(O)c1ccccc1.[Br-] (stereo not shown) [example 14]	3 min	32 h	18 h		
CCC[N+](CC)(CCCCCCCCN1CCCCC1C(=O)Nc1c(C)cccc1C)CC(=O)Nc1c(C)cccc1C.Cl.[Br-] (stereo not shown) [example 15]	2 min	38 h	25 h		
CC[N+](C)(CCCN1CCCC[C@@H]1C(=O)Nc1c(C)cccc1C)CC(=O)Nc1c(C)cccc1C (stereo partly shown) [example 16]	1 min	25 h	19 h		
CCC[N+](CC)(CCCCCCCCN1CCCCC1C(=O)Nc1c(C)cccc1C)CC(=O)Nc1c(C)cccc1C.[Br-] (stereo not shown) [example 17]	5 min	24 h	17 h		
Br.CCC[N+](CC)(CCCN1CCCCC1C(=O)Nc1c(C)ccc(S)c1C)CC(=O)Nc1c(C)cc(O)cc1C.[Br-] (stereo not shown) [example 18]	1 min	31 h	21 h		
CCC[N+](CC)(CCCCCCCCN1CCCC[C@H]1C(=O)Nc1c(C)cccc1C)CC(=O)Nc1c(C)cccc1C.[Br-] (stereo partly shown) [example 19]	1 min	29 h	22 h		
CCC[N+](CC)(CCCCN1C(C)CCCC1C(=O)Nc1c(C)cccc1C(C)C)CC(=O)Nc1c(C)cccc1C(C)C.[Br-] (stereo not shown) [example 20]	2 min	25 h	20 h		
CCC[N+](CC)(CCCCCCCCN1CCCCC1C(=O)Nc1c(C)cccc1C)CC(=O)Nc1c(C)cccc1C.[Br-] (stereo not shown) [example 21]	1 min	24 h	18 h		
CCC[N+](CC)(CCCCCCCN1CCC(OC)C[C@@H]1C(=O)Nc1c(C)cccc1C)CC(=O)Nc1c(C)cccc1C.[Br-] (stereo partly shown) [example 22]	3 min	29 h	18 h		
CCCCN(C(=O)[C@@H]1CCCCN1CCCCCCC[N+](CC)(CCC)CC(=O)Nc1c(C)cccc1C)c1c(C)cccc1C.[Br-] (stereo partly shown) [example 23]	2 min	35 h	28 h		
CCC[N+](CC)(CCCCCCCN1CCCCC1C(=O)Nc1c(C)ccc(Cl)c1C)CC(=O)Nc1c(C)ccc(C#N)c1C.[Br-] (stereo not shown) [example 24]	1 min	24 h	16 h		
CCC[N+](CC)(CCCCCCCCN1CCCC[C@@H]1C(=O)Nc1c(C)cccc1C)CC(=O)Nc1c(C)cccc1C.O=C(O)CC(O)(CC(=O)O)C(=O)O.[Br-] (stereo partly shown) [example 25]	5 min	32 h	24 h		
CCC[N+](CC)(CCCCCCCCN1CCCC1C(=O)Nc1c(C)ccc(C#N)c1C)CC(=O)Nc1c(C)ccc(C(=O)OC)c1C.[Br-] (stereo not shown) [example 26]	3 min	25 h	18 h		
CCCC[N+](CC)(CCCCCCN1CCCCC1C(=O)Nc1c(C)cc([N+](=O)[O-])cc1C)CC(=O)Nc1c(C)cc(C(=O)O)cc1C.[Br-] (stereo not shown) [example 27]	2 min	28 h	22 h		
CCC[N+](CC)(CCCCCCCN1CCCC[C@@H]1C(=O)Nc1c(C)ccc(C(=O)O)c1C)CC(=O)Nc1c(C)ccc(OC)c1C.[Br-] (stereo partly shown) [example 28]	4 min	26 h	18 h		
CCC[N+](CC)(CCCCCCCCN1CCCCC1C(=O)Nc1c(C)cc(OC)cc1C)CC(=O)Nc1c(C)ccc([N+](=O)[O-])c1C.[Br-] (stereo not shown) [example 29]	1 min	33 h	28 h		
CCC[N+](CC)(CCCN1CCCC[C@@H]1C(=O)Nc1c(C)ccc(C(=O)OC)c1C)CC(=O)Nc1c(C)ccc(N)c1C.O=C(O)C(O)C(O)C(=O)O.[Br-] (stereo partly shown) [example 30]	4 min	28 h	19 h		
